Assay results: ChEMBL document CHEMBL5465560, “Selectivity Literature for EUbOPEN Chemogenomic Library” (2024)
Each block holds one molecule with its values, some of them ahead of it.

Experiments:
[1] = biological target: Homeodomain-interacting protein kinase 2 (Homo sapiens, UniProt Q9H2X6); test: Selectivity interaction (Enzymatic assay (Eurofins)) EUB0001049a HIPK2
[2] = biological target: 5-hydroxytryptamine receptor 1B (Homo sapiens) (UniProt P28222); test: Selectivity interaction (Panel of kinases, GPCRs, ion channels and transporters (enzymatic assay)) EUB0000266bCl HTR1B
[3] = biological target: Platelet-derived growth factor receptor alpha (Homo sapiens, UniProt P16234); test: Selectivity interaction (Ambit KINOMEscan and KiNATiv profiling in Jurkat cells) EUB0000090b PDGFRA; assay type: cell-based; details: at 1 µM
[4] = biological target: DNA-dependent protein kinase catalytic subunit (Homo sapiens) (UniProt P78527); test: Selectivity interaction (ActivX KiNativ screen (kinase selectivity in THP-1 cell lysates)) EUB0000639a PRKDC; assay type: subcellular; details: lysate, at 0.2 µM
[5] = biological target: Dual specificity mitogen-activated protein kinase kinase 1 (Homo sapiens, UniProt Q02750); test: Selectivity interaction (ActivX KiNativ screen (kinase selectivity in THP-1 cell lysates)) EUB0000639a MAP2K1; assay type: subcellular; details: lysate
[6] = biological target: Epithelial discoidin domain-containing receptor 1 (Homo sapiens) (UniProt Q08345); test: Selectivity interaction (LanthaScreen Eu Kinase Binding Assay) EUB0001632a DDR1; details: at 10 µM
[7] = biological target: Small conductance calcium-activated potassium channel protein 1 (Homo sapiens) (UniProt Q92952); test: Selectivity interaction (Eurofins CEREP Diversity Profile (receptors and ion channels)) EUB0000279b KCNN1; details: at 10 µM
[8] = biological target: T1, Histone-lysine N-methyltransferase SUV39H1 (Homo sapiens) (UniProt O43463); test: Selectivity interaction (Methyltransferase screen (radiometric assays, panel of 8 PRMTs, 21 protein lysine methyltransferases, 3 DNA methyltransferases, and one RNA methyltransferase)) EUB0000271b SUV39H1
T1 sequence (whole entry): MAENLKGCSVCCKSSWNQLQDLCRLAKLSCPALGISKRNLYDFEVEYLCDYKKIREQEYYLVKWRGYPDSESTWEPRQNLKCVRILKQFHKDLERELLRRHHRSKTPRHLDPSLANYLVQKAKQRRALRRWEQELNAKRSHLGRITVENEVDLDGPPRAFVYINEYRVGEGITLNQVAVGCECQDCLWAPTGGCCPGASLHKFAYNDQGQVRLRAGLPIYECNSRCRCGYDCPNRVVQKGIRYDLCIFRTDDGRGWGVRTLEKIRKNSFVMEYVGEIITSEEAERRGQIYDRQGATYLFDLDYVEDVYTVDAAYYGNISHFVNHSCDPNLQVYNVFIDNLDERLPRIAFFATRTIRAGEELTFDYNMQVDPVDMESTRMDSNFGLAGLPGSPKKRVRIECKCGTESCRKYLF

[9] = biological target: Vasopressin V1a receptor (Homo sapiens) (UniProt P37288); test: Selectivity interaction (Panel of non-epigenetic targets (kinases, GPCRs, ion channels, and transporters, Eurofins) ) EUB0000271b AVPR1A; details: at 1 µM
[10] = biological target: Receptor tyrosine-protein kinase erbB-2 (Homo sapiens, UniProt P04626); test: Selectivity interaction (KinomeScan (DiscoverX)) EUB0000229b ERBB2; details: at 10 µM
[11] = biological target: Mitogen-activated protein kinase 1 (Homo sapiens, UniProt P28482); test: Selectivity interaction (Upstate Kinase Profiler service (Millipore)) EUB0000056c MAPK1; details: at 1 µM
[12] = biological target: Mast/stem cell growth factor receptor Kit (Homo sapiens, UniProt P10721); test: (§1) Selectivity interaction (KinomeScan (DiscoverX)) EUB0000045b KIT
[13] = system: Mast/stem cell growth factor receptor Kit (Homo sapiens), P10721 [V559D,V654A]; test: as §1
[14] = system: Mast/stem cell growth factor receptor Kit (Homo sapiens), P10721 [D816H]; test: as §1
[15] = system: Mast/stem cell growth factor receptor Kit (Homo sapiens), P10721 [V559D,T670I]; test: as §1
[16] = system: Mast/stem cell growth factor receptor Kit (Homo sapiens), P10721 [D816V]; test: as §1
[17] = system: Mast/stem cell growth factor receptor Kit (Homo sapiens), P10721 [L576P]; test: as §1
[18] = system: Mast/stem cell growth factor receptor Kit (Homo sapiens), P10721 [V559D]; test: as §1
[19] = system: Mast/stem cell growth factor receptor Kit (Homo sapiens), P10721 [A829P]; test: as §1
[20] = biological target: Serine/threonine-protein kinase 32A (Homo sapiens) (UniProt Q8WU08); test: Selectivity interaction (KinomeScan (DiscoverX)) EUB0000655a STK32A; details: at 10 µM
[21] = biological target: Tyrosine-protein kinase Fgr (Homo sapiens) (UniProt P09769); test: Selectivity interaction (ActivX KiNativ screen (ex vivo kinase selectivity in human PBMCs)) EUB0001619a FGR; assay type: cell-based; details: PBMC, at 1 µM
[22] = biological target: T2, Serine/threonine-protein kinase DCLK2 (Homo sapiens) (UniProt Q8N568); test: Selectivity interaction (KinomeScan (DiscoverX)) EUB0000607a DCLK2; details: at 10 µM
T2 sequence (whole entry): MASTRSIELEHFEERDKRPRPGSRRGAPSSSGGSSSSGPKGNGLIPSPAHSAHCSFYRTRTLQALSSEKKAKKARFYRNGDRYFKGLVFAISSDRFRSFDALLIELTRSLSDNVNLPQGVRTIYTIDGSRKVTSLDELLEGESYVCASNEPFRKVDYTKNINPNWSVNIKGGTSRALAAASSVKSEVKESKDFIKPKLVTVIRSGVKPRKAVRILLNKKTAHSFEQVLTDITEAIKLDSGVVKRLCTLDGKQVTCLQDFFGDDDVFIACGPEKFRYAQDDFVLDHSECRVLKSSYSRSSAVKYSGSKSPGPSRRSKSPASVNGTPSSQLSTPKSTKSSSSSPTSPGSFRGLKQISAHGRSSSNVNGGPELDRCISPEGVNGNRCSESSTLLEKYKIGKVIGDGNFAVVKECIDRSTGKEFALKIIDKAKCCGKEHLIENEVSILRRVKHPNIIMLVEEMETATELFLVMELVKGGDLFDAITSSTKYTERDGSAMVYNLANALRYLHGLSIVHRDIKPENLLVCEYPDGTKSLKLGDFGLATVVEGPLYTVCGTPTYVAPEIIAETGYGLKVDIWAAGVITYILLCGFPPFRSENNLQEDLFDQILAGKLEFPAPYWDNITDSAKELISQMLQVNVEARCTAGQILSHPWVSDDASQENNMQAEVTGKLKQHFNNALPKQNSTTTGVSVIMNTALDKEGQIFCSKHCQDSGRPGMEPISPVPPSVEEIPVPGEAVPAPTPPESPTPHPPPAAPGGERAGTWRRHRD

Sequence of Dual specificity mitogen-activated protein kinase kinase 1 (Q02750 whole entry, the tested form may be a part): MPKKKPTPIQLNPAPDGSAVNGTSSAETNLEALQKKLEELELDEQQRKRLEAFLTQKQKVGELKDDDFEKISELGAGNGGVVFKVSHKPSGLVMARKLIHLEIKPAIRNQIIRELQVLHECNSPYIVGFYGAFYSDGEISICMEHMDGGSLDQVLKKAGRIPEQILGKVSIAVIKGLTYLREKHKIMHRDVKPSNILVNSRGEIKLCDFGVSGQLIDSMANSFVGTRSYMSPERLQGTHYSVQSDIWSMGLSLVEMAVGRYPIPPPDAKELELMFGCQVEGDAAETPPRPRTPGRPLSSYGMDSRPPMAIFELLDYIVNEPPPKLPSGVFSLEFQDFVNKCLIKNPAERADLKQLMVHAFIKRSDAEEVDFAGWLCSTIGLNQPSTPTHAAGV
Sequence of Mast/stem cell growth factor receptor Kit (Homo sapiens), P10721 [A829P] (P10721 whole entry A829P): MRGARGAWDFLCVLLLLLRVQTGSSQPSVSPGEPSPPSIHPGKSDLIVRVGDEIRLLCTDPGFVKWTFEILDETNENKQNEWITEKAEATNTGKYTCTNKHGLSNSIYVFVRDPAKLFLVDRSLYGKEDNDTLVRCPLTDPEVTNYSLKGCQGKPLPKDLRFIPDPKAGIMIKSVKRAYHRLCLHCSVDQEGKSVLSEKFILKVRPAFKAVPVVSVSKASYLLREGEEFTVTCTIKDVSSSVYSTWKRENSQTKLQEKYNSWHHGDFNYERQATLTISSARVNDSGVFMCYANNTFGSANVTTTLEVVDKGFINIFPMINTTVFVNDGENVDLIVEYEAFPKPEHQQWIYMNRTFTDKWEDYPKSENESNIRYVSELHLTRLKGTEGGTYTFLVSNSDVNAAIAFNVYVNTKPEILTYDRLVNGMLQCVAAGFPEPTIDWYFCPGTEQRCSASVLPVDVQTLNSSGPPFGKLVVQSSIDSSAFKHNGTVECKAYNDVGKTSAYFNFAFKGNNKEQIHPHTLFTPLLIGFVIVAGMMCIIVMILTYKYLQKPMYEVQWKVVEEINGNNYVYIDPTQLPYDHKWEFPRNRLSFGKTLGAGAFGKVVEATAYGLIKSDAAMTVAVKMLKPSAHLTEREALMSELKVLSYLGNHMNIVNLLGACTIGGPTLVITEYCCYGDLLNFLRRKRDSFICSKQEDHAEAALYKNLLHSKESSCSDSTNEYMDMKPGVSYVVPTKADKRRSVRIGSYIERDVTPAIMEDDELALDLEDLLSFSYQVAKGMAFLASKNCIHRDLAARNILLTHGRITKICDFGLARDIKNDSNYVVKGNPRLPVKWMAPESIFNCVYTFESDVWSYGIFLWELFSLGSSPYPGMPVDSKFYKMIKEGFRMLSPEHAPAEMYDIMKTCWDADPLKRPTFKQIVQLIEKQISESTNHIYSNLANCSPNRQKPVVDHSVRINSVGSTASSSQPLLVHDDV
Sequence of Mast/stem cell growth factor receptor Kit (Homo sapiens), P10721 [D816V] (P10721 whole entry D816V): as the sequence (P10721 whole entry A829P) above, with D816V, P829A counted along it
Sequence of Mast/stem cell growth factor receptor Kit (P10721 whole entry): as the sequence (P10721 whole entry A829P) above, with P829A counted along it
Sequence of Mast/stem cell growth factor receptor Kit (Homo sapiens), P10721 [V559D,V654A] (P10721 whole entry V559D/V654A): as the sequence (P10721 whole entry A829P) above, with V559D, V654A, P829A counted along it
Sequence of 5-hydroxytryptamine receptor 1B (Homo sapiens) (P28222 whole entry): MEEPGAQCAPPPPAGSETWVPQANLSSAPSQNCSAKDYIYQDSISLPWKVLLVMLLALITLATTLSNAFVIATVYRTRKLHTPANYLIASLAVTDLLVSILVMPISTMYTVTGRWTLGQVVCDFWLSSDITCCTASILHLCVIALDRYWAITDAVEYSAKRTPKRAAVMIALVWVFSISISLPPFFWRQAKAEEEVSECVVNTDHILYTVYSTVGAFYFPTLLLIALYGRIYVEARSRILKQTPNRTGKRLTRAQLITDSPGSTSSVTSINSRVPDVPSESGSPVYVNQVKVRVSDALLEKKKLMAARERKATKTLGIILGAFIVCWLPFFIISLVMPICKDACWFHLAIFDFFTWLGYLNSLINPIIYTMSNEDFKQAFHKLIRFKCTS
Sequence of Mitogen-activated protein kinase 1 (P28482 whole entry): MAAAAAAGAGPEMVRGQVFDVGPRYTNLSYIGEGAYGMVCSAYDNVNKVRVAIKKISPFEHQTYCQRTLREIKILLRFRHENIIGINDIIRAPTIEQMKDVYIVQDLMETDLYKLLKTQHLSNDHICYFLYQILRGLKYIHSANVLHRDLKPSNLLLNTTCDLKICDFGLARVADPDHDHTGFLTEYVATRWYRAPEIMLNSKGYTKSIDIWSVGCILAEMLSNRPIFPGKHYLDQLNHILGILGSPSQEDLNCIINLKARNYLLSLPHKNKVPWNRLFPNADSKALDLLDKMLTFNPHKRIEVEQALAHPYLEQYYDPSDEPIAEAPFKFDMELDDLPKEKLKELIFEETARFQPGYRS

Structure (SMILES): COc1cc(Nc2nc(C)cc(-c3cnn4nc(OC)ccc34)n2)cc(C(F)(F)F)c1
IC50 [1]: > 10 µM

pXC50 [2]: < 4.5 M
Structure (SMILES): CCn1c(-c2nc3cc(C(=O)N4CCCC(N)C4)ccc3n2C)cc2ccccc21 (stereo not given)

Structure (SMILES): CN(C)C/C=C/C(=O)Nc1ccc(C(=O)N2CCCC(Nc3ncc(Cl)c(-c4c[nH]c5ccccc45)n3)C2)cc1 (stereo not given)
% of control [3]: 91%

% of inhibition [4]: -5.7%
% of inhibition ([5]; at 0.01 µM): -25.6%
% of inhibition ([5]; at 0.04 µM): -4.8%
% of inhibition ([5]; at 0.2 µM): -3.6%
% of inhibition ([5]; at 1 µM): 3.1%
% of inhibition ([5]; at 5 µM): 18.5%
Structure (SMILES): CC[C@@H]1[C@H](F)C(=O)N[C@@H]1COc1nccc2cc(C(N)=O)c(OC)cc12 [ZIMLOVISERTIB]

% of inhibition [6]: 0.322%
Structure (SMILES): Cn1cc(-n2cnc3c(NCc4nc5cc(Cl)c(Cl)cc5[nH]4)nc(N4CCOCC4)nc32)cn1

% of control [7]: 110%
Structure (SMILES): CC(=O)c1cc(-c2ccccc2OCC2CC2)c2ncccn12

Structure (SMILES): Cc1cc(C)cc([C@@H]2c3cc(C)ccc3NC(=O)CN2C(=O)c2ccc(Br)s2)c1
% of activity ([8]; at 1 µM): 96.7%
% of activity ([8]; at 10 µM): 91.3%
% of inhibition [9]: -5%

Structure (SMILES): COc1cc(N(C)c2ccnc3ccc(C(F)(F)F)cc23)cc(OC)c1OC
% binding [10]: 62%

% of inhibition [11]: 1%
Structure (SMILES): Cc1ccc(-c2ccc3c(ccc4sc5c(c43)NC[C@@H](C)NC5=O)n2)cn1

Structure (SMILES): C=CC(=O)Nc1cc(-n2c(=O)ccc3cnc4ccc(-c5ccc(NS(C)(=O)=O)cc5)cc4c32)ccc1C
% of control ([12]; at 1 µM): 89%
% of control ([12]; at 10 µM): 89%
% of control ([13]; at 1 µM): 100%
% of control ([13]; at 10 µM): 100%
% of control ([14]; at 1 µM): 99%
% of control ([14]; at 10 µM): 100%
% of control ([15]; at 1 µM): 100%
% of control ([15]; at 10 µM): 91%
% of control ([16]; at 1 µM): 69%
% of control ([16]; at 10 µM): 73%
% of control ([17]; at 1 µM): 100%
% of control ([17]; at 10 µM): 83%
% of control ([18]; at 1 µM): 87%
% of control ([18]; at 10 µM): 88%
% of control ([19]; at 1 µM): 74%
% of control ([19]; at 10 µM): 81%

Structure (SMILES): CN(C)CCOc1ccc(-c2nc(-c3ccncc3)c(-c3ccc4c(c3)CC/C4=N\O)[nH]2)cc1
% of control [20]: 85%

Structure (SMILES): N#Cc1cccc(-c2c[nH]c3ncnc(N4CCOCC4)c23)c1
% of inhibition [21]: -34%

Structure (SMILES): CNC(=O)Nc1ccc(-c2nc(N3CC4CCC(C3)O4)c3cnn(C4CCC5(CC4)OCCO5)c3n2)cc1
% of control [22]: 97%
